From US8809280B2, “Therapeutic peptides” (Lytix Biopharma AS, priority 2009, dated 2014)
In brackets after ≈: the same amount, converted by molar mass. Read-outs that look alike come from different tables or passages of the source. Each block holds one compound with its values, some of them ahead of it.

Assays:
Format in all cases: cell-based
[1] = system: Staphylococcus aureus (ATTC 25923); experiment: microbe, parasite or virus in culture
Description: (§1) The antimicrobial testing was conducted by TosLab A/S (Tromsø, Norway). Each compound was diluted to 1 mg/ml in water and tested in duplicates at 200, 100, 50, 35, 15, 10, 5, 2.5, 1, 0.5 μg/ml except 4n which was tested at 50, 35, 15, 10, 5, 2.5, 1, 0.5 μg/ml due to solubility problems. All tested compounds were di TFA salts.
(§2) The bacterial strains were grown in 2% Bacto Peptone water until exponential growth was achieved. […] A bacterial concentration of 2×10^6 cfu/ml was used. Both negative control (no peptide) and positive control (Gentamicin) was used for all bacterial strains. Growth or no growth was judged by the turbidity of the wells.
Staphylococcus aureus (ATTC 25923)
(§3) Antimicrobial assays: 200 μg/ml
(§4) Suitable methodologies are described in Example 1.
(§5) Each compound was tested in duplicates at 200, 100, 50, 35, 15, 10, 5, 2.5, 1, 0.5 μg/ml. All tested compounds were di-trifluoroacetic acid salts.

[2] = system: methicillin resistant Staphylococcus aureus (ATCC 33591); experiment: microbe, parasite or virus in culture
Description: as §1, §2
Methicillin resistant Staphylococcus aureus (ATCC 33591)
as §3, §4, §5

[3] = system: methicillin resistant Staphylococcus epidermidis (ATCC 27626); experiment: microbe, parasite or virus in culture
Description: as §1, §2
Methicillin resistant Staphylococcus epidermidis (ATCC 27626)
as §3, §4, §5

[4] = system: Escherichia coli (ATTC 25922); experiment: microbe, parasite or virus in culture; details: for MIC E. coli: Example 1, di TFA salts
Description: as §1, §2
Escherichia coli (ATTC 25922)
as §3, §4, §5

[5] = system: human red blood cells; experiment: cells; details: highest concentration tested 1000 μg/ml; for EC50: Erythrocyte
Description: The hemolytic testing against human erythrocytes was conducted by Lytix Biopharma A/S (Tromso, Norway). Each compound was tested from a concentration of 1 mg/ml and lower, except 4k and 4n which was only tested up to 0.5 mg/ml due to solubility problems. 8 mL of blood was collected from adult healthy male donors. The blood was divided equally and distributed in a commercial available EDTA containing test tube (BD vacutainer, 7.2 mg K2 EDTA) and in a 10 mL reaction vial containing 40 μL of a heparin solution (1000 U/mL in 0.9% sodium chloride). After 30 minutes the hematocrit of the EDTA treated blood was determined. The heparinized blood was centrifuged for 10 minutes at 1500 rpm and the supernatant removed. Subsequently the RBCs were washed with prewarmed PBS three times, and diluted to 10% hematocrit. The compounds dissolved in PBS (concentration 1 μg/mL to 1000 µg/mL) and the erythrocytes were incubated under agitation at 37° C. for one hour. A positive control with an end concentration of 0.1% TRITON X-100 (nonionic surfactant) and a negative control containing pure PBS buffer were included. The samples were centrifuged (4000 rpm) for 5 minutes and the absorption of the supernatant was measured at 405 nm. The values given in Table 1A correspond to 50% hemolysis.
The plasma fraction of heparinized human blood was first removed by centrifugation and three additional washing steps with 37° C. pre-warmed phosphate buffered saline (PBS). Subsequently, the human RBC were diluted to 10% hematocrit and the β^2,2-amino acid derivatives were dissolved in PBS providing concentrations ranging from 1-1000 μg/mL. The diluted RBC were added to the compound solutions to a final erythrocyte concentration of 1% v/v. PBS and TRITON X-100 (non-ionic surfactant), in a final concentration of 0.1% v/v, were included as negative and positive control. After 1 hour agitated incubation at 37° C. the samples were centrifuged at 4000 rpm for 5 min. Release of hemoglobin was determined by measuring the absorbance of the supernatant at 405 nm. Hemolytic activity was calculated as the ratio of treated sample with β^2,2-amino acid derivative and tenside treated sample according to the formula: […]

[6] = ATTC 25923, read-out: MIC S. aureus
[7] = ATTC 25922, highest concentration tested 200 μg/ml
[8] = Example 1, 50% hemolysis of human red blood cells
[9] = Staphylococcus aureus, Example 2, values separated by / are repeat tests, read-out: Antimicrobial potency (MIC) S. aureus
[10] = Staphylococcus aureus, ATCC 33591 / MRSA, Example 2, values separated by / are repeat tests, read-out: Antimicrobial potency (MIC) MRSA
[11] = Staphylococcus epidermidis, ATCC 27626 / MRSE, Example 2, values separated by / are repeat tests, read-out: Antimicrobial potency (MIC) MRSE
[12] = Escherichia coli, Example 2, values separated by / are repeat tests, read-out: Antimicrobial potency (MIC) E. coli
[13] = Homo sapiens, Example 2, * low solubility in the test media, read-out: Toxicity RBC (EC50)
[14] = Staphylococcus aureus, ATCC25923, Example 4, ATCC 25923, di-trifluoroacetate salts, highest concentration tested 200 μg/ml, read-out: MIC S. aureus
[15] = Staphylococcus aureus, ATCC33591, Example 4, ATCC 33591, di-trifluoroacetate salts, highest concentration tested 200 μg/ml, read-out: MIC MTRSA
[16] = Staphylococcus epidermidis, ATCC 27626 / MRSE, Example 4, ATCC 27626, di-trifluoroacetate salts, highest concentration tested 200 μg/ml, read-out: MIC MRSE
[17] = Escherichia coli, ATCC25922, Example 4, ATCC 25922, di-trifluoroacetate salts, highest concentration tested 200 μg/ml, read-out: MIC E. coli
[18] = Example 4, hemolytic activity, human red blood cells, read-out: EC50 RBC

SMILES: CN(C)CCNC(=O)C(CN)(Cc1ccc2ccccc2c1)Cc1ccc2ccccc2c1 [Compound 27, 3-amino-N-(2-(dimethylamino)ethyl)-2,2-bis(naphthalen-2-ylmethyl)propanamide]
MIC [1, 9]: 5 µg/mL
MIC [2, 10]: 5 µg/mL
MIC [3, 11]: 5 µg/mL
MIC [4, 12]: 15 µg/mL
EC50 [5, 13]: 145 µg/mL

SMILES: CN(C)CCN1CCN(C(=O)C(CN)(Cc2ccc3ccccc3c2)Cc2ccc3ccccc3c2)CC1 [Compound 37, 3-amino-1-(4-(2-(dimethylamino)ethyl)piperazin-1-yl)-2,2-bis(naphthalen-2-ylmethyl)propan-1-one]
MIC [1, 9]: 15 µg/mL
MIC [2, 10]: 2.5 µg/mL
MIC [3, 11]: 10 µg/mL
MIC [4, 12]: 35 µg/mL
EC50 [5, 13]: 301 µg/mL

SMILES: CN(C)CCNC(=O)C(CN)(Cc1ccccc1)Cc1ccccc1 [Compound 23, 3-amino-2,2-dibenzyl-N-(2-(dimethylamino)-ethyl)-propanamide]
MIC [1, 9]: > 100 µg/mL
MIC [2, 10]: > 100 µg/mL
MIC [3, 11]: > 100 µg/mL
MIC [4, 12]: > 100 µg/mL
EC50 [5, 13]: > 1000 µg/mL

SMILES: CN(C)CCNC(=O)C(CN)(Cc1ccc(C(F)(F)F)cc1)Cc1ccc(C(F)(F)F)cc1 [Compound 28, 3-amino-N-(2-(dimethylamino)ethyl)-2,2-bis(4-(trifluoromethyl)benzyl)-propanamide]
MIC [1, 9]: 10 µg/mL
MIC [2, 10]: 5 µg/mL
MIC [3, 11]: 15 µg/mL
MIC [4, 12]: 35 µg/mL
EC50 [5, 13]: 329 µg/mL

SMILES: CN(C)CCNC(=O)C(CN)(Cc1ccc(C(C)(C)C)cc1)Cc1ccc(C(C)(C)C)cc1 [Compound 24, 3-amino-2,2-bis(4-tert-butylbenzyl)-N-(2-(dimethylamino)-ethyl)-propanamide]
MIC [1, 9]: 5 µg/mL
MIC [2, 10]: 5 µg/mL
MIC [3, 11]: 2.5 µg/mL
MIC [4, 12]: 5 µg/mL
EC50 [5, 13]: 185 µg/mL

Further lines, with some results ahead:

MIC [1, 6]: 289 µM
MIC ([2]; ATCC 33591, read-out: MIC MTRSA): 72 µM
MIC ([3]; ATCC 27626, read-out: MIC MRSE): 72 µM
MIC ([4]; ATTC 25922, read-out: MIC E. coli): 289 µM
SMILES: CN(C)CCN1CCN(C(=O)C(CN)(CCCc2ccccc2)CCCc2ccccc2)CC1 [Compound 4a]
MBC S. aureus ([1]; ATTC 25923): >360 µM
MIC S. aureus ([1]; Example 1, ATTC 25923, di TFA salts, highest concentration tested 200 μg/ml): — (The notation “—”denotes no detectable activity (MIC or EC50) within the concentration range tested.)
MBC MRSA ([2]; ATCC 33591): >360 µM
MIC MRSA ([2]; Example 1, ATCC 33591, di TFA salts, highest concentration tested 200 μg/ml): — (The notation “—”denotes no detectable activity (MIC or EC50) within the concentration range tested.)
MBC MRSE ([3]; ATCC 27626): >360 µM
MIC MRSE ([3]; Example 1, ATCC 27626, di TFA salts, highest concentration tested 200 μg/ml): — (The notation “—”denotes no detectable activity (MIC or EC50) within the concentration range tested.)
MBC E. coli ([4]; ATTC 25922): >360 µM
MIC E. coli [4, 7]: — (The notation “—”denotes no detectable activity (MIC or EC50) within the concentration range tested.)
EC50 RBC [5, 8]: — (The notation “—”denotes no detectable activity (MIC or EC50) within the concentration range tested.)
EC50 RBC ([5]; Example 4, hemolytic activity, human red blood cells): — (The notation “—” denotes no detectable activity (MIC or EC50) within the concentration range tested.)

MIC [1, 6]: 49 µM
MIC MRSA ([2]; ATCC 33591): 49 µM (≈ 23.6 µg/mL)
MIC ([3]; ATCC 27626, read-out: MIC MRSE): 35 µM
SMILES: N=C(N)NCCC[C@H](NC(=O)C(CN)(CCCc1ccccc1)CCCc1ccccc1)C(N)=O [Compound 4f]
MBC S. aureus ([1]; ATTC 25923): 49 µM (≈ 23.6 µg/mL)
MBC MRSA ([2]; ATCC 33591): 49 µM (≈ 23.6 µg/mL)
MBC MRSE ([3]; ATCC 27626): 49 µM (≈ 23.6 µg/mL)
MBC E. coli ([4]; ATTC 25922): >282 µM
MIC E. coli [4, 7]: — (The notation “—”denotes no detectable activity (MIC or EC50) within the concentration range tested.)
EC50 RBC [5, 8]: — (The notation “—”denotes no detectable activity (MIC or EC50) within the concentration range tested.)

MIC [1, 14]: 315 µM
MIC [2, 15]: 315 µM
MIC [3, 16]: 315 µM
MIC [4, 17]: 315 µM
SMILES: CN1CCN(C(=O)C(CN)(CCCc2ccccc2)CCCc2ccccc2)CC1 [Entry 5a]
EC50 [5, 18]: > 1000 µg/mL

MIC [1, 14]: 15 µM
MIC [2, 15]: 7.4 µM
MIC [3, 16]: 15 µM
MIC [4, 17]: 52 µM
SMILES: NCCNC(=O)C(CN)(Cc1ccc(C(F)(F)F)cc1)Cc1ccc(C(F)(F)F)cc1 [Entry 7b]
Therapeutic index S. aureus ([1]; EC50 RBC divided by MIC): 28
Therapeutic index MRSA ([2]; EC50 RBC divided by MIC): 57
Therapeutic index MRSE ([3]; EC50 RBC divided by MIC): 28
Therapeutic index E. coli ([4]; EC50 RBC divided by MIC): 8
EC50 [5, 18]: 425 µM
